This note sets out measurements from PMC11173382, “In Vitro Investigations into the Potential Drug Interactions of Pseudoginsenoside DQ Mediated by Cytochrome P450 and Human Drug Transporters” (Molecules, 2024).

The experiment addresses T1, hOAT1 (Homo sapiens, UniProt Q4U2R8).
T1 sequence (Q4U2R8 1-563): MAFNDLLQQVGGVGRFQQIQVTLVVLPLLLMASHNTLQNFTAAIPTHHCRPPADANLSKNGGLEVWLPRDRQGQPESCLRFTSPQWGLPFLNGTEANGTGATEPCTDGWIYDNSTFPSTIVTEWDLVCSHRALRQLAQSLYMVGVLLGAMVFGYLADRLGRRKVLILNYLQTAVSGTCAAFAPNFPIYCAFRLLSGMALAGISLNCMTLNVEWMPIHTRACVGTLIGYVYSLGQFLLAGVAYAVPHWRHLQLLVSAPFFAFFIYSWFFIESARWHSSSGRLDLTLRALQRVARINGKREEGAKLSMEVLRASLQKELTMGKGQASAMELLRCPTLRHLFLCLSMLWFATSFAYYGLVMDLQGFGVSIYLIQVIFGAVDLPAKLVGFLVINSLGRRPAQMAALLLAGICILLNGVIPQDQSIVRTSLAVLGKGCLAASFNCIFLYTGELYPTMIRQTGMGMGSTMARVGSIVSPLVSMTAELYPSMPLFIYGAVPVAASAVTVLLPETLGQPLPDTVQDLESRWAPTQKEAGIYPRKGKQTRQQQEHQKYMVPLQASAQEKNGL
The experiment is described as follows: Substrates uptake assay, MDCKII-OAT1 cells (14C-PAH). Format: in vitro ADME. The source says:
Drug transporters mediate the cellular uptake and efflux of their substrates. Therefore, cell lines overexpressing a drug transporter can be utilized to investigate inhibitors of the transporter by assessing changes in substrate uptake. For each drug transporter, we selected a well-characterized inhibitor as the positive control. Radiolabeled substrates were used to indicate the decrease in transport efficiency when the drug transporters were inhibited by PDQ or the control inhibitors.
The concentrations of the control drugs and the substrates were stated in the assay details. Working solutions of the control inhibitors, the radiolabeled substrates, and each dose of PDQ were prepared at 200 times (200×) more concentrated solutions with DMSO for further dilution.
Transporter-overexpressed cell lines. Human organic anion transporter-overexpressed cell lines MDCKII-OAT1 and S2-OAT3, human organic anion transport polypeptide-overexpressed cell lines HEK293A-OATP1B1 and HEK293A-OATP1B3, human organic cation transporter 2-overexpressed cell line S2-OCT2, and human multi-drug resistance protein MDR1 (or P-gp)-overexpressed cell line MDCKII-MDR1 were gifts from Japan Fuji Biomedical Co., Ltd. (Fuji, Shizuoka Prefecture, Japan). Breast cancer resistance protein-overexpressed vesicles (sf9-BCRP vesicle) were purchased from GenoMembrane Co., Ltd. (Yokohama, Kanagawa, Japan).
Substrates uptake assay. In this assay, we studied the inhibition of PDQ against transporters OAT1, OAT3, OCT2, OATP1B1 and OATP1B3 with MDCKII-OAT1, S2-OAT3, S2-OCT2, HEK293A-OATP1B1and HEK293A-OATP1B3 cells, respectively. The radiolabeled substrates for OAT1, OAT3, OATP1B1, OATP1B3 and OCT2 were […], respectively (Table 5). Probenecid ([…]) was the positive control inhibitor of OAT1 and OAT3, while rifampicin ([…]) served as the control drug of OATP1B1 and OATP1B3. For OCT2, we used […] cimetidine to compare with the inhibitory effect of PDQ. Two times (2×) more concentrated working solutions of the drugs and the substrate were prepared with Dulbecco’s phosphate-buffered saline (DPBS, Gibco, Grand Island, NY, USA.). Then, an equal volume of 2× drug solution and 2× radiolabeled substrate solution were mixed as the working mix. All reagents were pre-warmed to 37 °C.
The cells were digested with 0.05% trypsin/EDTA. The density of the single-cell suspension was adjusted to 2.0 × 10^5 cells/mL for S2 cells and to 1.5 × 10^5 cells/mL for MDCK II and HEK293A cells. The cell suspension was then added to the reservoirs of the 24-well plate for culture until full confluency. The medium in the wells was removed, and the wells were washed with DPBS. Then, the plate was incubated for 10 min with pre-warmed DPBS in the wells. After removing DPBS, […] of working mix was added to each well to initiate the substrate uptake process. The reaction time was 5 min for S2-OCT2 cells, while the other four types of cells were incubated with the reaction mix for 2 min. Cold DPBS was used to terminate the substrate transportation. To each well, […] NaOH ([…]) was added to lyse the cells. Then, […] cell lysate was transferred to the counting vials, and 3 mL scintillation cocktail (Aquasol-2, PerkinElmer, Waltham, MA, USA) was added. […] Each sample was replicated three times (N = 3).
In = [100 × (U − U0)/(Uc − U0)]%(3)
The results were expressed as mean ± standard deviation (SD) and analyzed with GraphPad Prism 8.0 software (CA, USA). The IC50 of PDQ was curve-fitted with the FORECAST function.

What is called IC50 is the concentration that inhibits the measured activity by half. The low end stands for inhibition by little substance, the high end for a need for much substance. Consider `CC(C)(O)[C@@H]1CC[C@@](C)([C@H]2CC[C@]3(C)[C@@H]2[C@H](O)C[C@@H]2[C@@]4(C)CC[C@H](O)C(C)(C)[C@@H]4CC[C@]23C)O1` [PDQ, (20S,24S)-dammar-20,24-epoxy-3β, 12β, 25-triol], for which the IC50 (MDCKII-OAT1, 14C-PAH 5 µM, 2 min) was greater than 30 µM. In addition, the “DPM (14C-PAH uptake by OAT1)” value is on record as 540.3±39.2 DPM (inhibitor 0.1 μM); 566.0±44.8 DPM (inhibitor 0.3 μM); 547.7±68.8 DPM (inhibitor 1 μM); 496.3±38.1 DPM (inhibitor 3 μM); 558.7±19.7 DPM (inhibitor 10 μM); 460.3±5.7 DPM (inhibitor 30 μM).
